Assay [1] in a line: Animal case study: antibiotic treatment of a cat. Format: in vivo. The conditions noted are these: domestic cat with a scratch to the eye; 30 days of treatment. As for the experimental part: A domestic cat was given a mixture of antibiotics as eye drops in response to a scratch to the eye. […] Previously the cat had never been given milk (as many animals are allergic to cow's milk). The cat was now given full cream milk as part of a regimen to promote weight gain (the cat also continued to eat its usual amount of daily cat food throughout the period of weight loss). Initially weight was gained but within 24 hours weight loss resumed (presumably because the pathogenic bacteria/viruses had found a way of utilising lactose). An autopsy indicated bone-cancer as cause of death. The body wasting caused by the weight loss was very similar to that observed in early AIDS cases. However the cat had been regularly vaccinated against HTLV 1 through its 16 year life (and had never been ill in that period).

The test system of assay [2] is B. pumilus. Kind of assay: MIC determination against B. pumilus. The conditions noted are these: as printed in table heads. Format: cell-based, Bacillus pumilus. As for the experimental part:
(§1) However when the concentration of organisms was 5.1 x 10^6 cfu/ml which was the inoculum used in the microcalorimetric incubations the MIC was increased to 2 µg/ml; the effect was also bacteriostatic.

Assay [3] relates to Bacillus pumilus. Kind of assay: Flow microcalorimetry (p-t curves) of growing Bacillus pumilus. Format: cell-based. To be noted: pH 8.00.
From the text: (§2) • a) For B. pumilus a simple glucose/salts medium was employed with a glucose concentration of 0.1 % w/v. • b) For Bord. bronch. The above salts medium was used with the addition of nicotinic acid, methionine and glutamic acid. Glutamic acid was used at a concentration of 0.2% w/v. • c) For M. flavus a semidefined medium was employed, using the same salts as a B. pumilus but also Na-citrate, biotin and protease peptone. In the calorimeter a concentration of 0.4% protease peptone was used. All medium constituents (except protease) were analytical reagents. The calorimetric medium was therefore a final concentration of 100ml of either solution a, b or c freshly autoclaved for 15 mins exactly at 121°C, 151b/sq inch. Glucose was added to the appropriate solution after autoclaving.
(§3) To the vertical face of the vessel close to its base, equidistantly spaced around the circumference, ports were fitted for an oxygen electrode and for sampling/inoculation. The fermenter was closed with a flat flanged glass lid which had five ports accommodating respectively, gas inlet tube, gas exhaust (via air condenser), inlet and outlet flow-lines to and from the calorimeter. The fermenter and lid was sealed with a p.t.f.e. gasket and clamped with a metal clip. The fermenter was placed on a magnetic stirring unit in a water jacket which allowed circulation of the thermostatically controlled water at 30°C or 37°C. The fermenter which contained a Teflon coated magnetic stirring bar, was sterilised by autoclaving.
(§4) For a typical calorimetric incubation the medium was passed through the calorimetric vessel at the same flow rate and temperature as those used in the experiment to establish a steady baseline deflection. The following operations then took place to a strict timetable. The liquid nitrogen stored ampoule was thawed at 38°C for 3 min and then stirred for 20 sec on a whirlimixer. The bacterial suspension (0.5-1.5ml) volumes was inoculated into the medium (100ml) two minutes after completion of thawing. A Gilson automatic pipette was used for inoculation. The calorimeter inlet flow-line was placed in the incubation medium 30 seconds after inoculation. The flowing incubation medium reached the calorimetric vessel two min after inlet flow-line insertion. At this time the recording of the p-t curves was started. Eight min after inoculation the outflow from the calorimeter was returned to the fermenter (after the "baseline" medium had run to waste but before the inoculated medium ran to waste) thus making a closed system. Aeration was started as soon as the inlet tube was inserted in the fermenter. Microbiological purity of the culture was checked by plating out a sample of the culture at the end of each incubation on nutrient agar (lab M).
(§5) The output of calorimetric experiments is a plot of power (energy evolution per unit of time) as a function of time. The unit of power (p) is the Watt (W) and the unit of time is the hour (h). In some experiments seconds (s) were used as time unit.
as §1

For assay [4], the system named is Micrococcus flavus. Kind of assay: MIC / MBC against Micrococcus flavus. The assay is classed as cell-based.
Assay [5] deals with Micrococcus flavus. The assay is described as follows: Flow microcalorimetry (p-t curves) of growing Micrococcus flavus. The assay is classed as cell-based.
From the text: as §2, §3, §4, §5
This point occurred at an increase in deflection of 29.5% from the baseline value.

Assay [6] relates to Bordetella Bronchiseptica. The assay is described as follows: MIC / MBC against Bordetella bronchiseptica. Format: cell-based.
Assay [7] has as its system Bordetella Bronchiseptica. Kind of assay: Flow microcalorimetry (p-t curves) of growing Bordetella bronchiseptica. The assay is classed as cell-based.
From the text: as §2, §3, §4, §5
After successful freezing of Bord. bronch p-t curves for growth in different concentrations of glutamic acid from 0.1%-0.5% were obtained. It was concluded that a medium containing 0.2% glutamic acid would be sufficient for a good deflection in the microcalorimeter minimising the possibility of the bacteria clogging in the microcalorimetric cell or in the teflon tubes leading to and from the microcalorimetric cell. A pH of 7 was used in all the following experiments as this is the optimum pH for polymyxin - lipid binding.
It was of vital importance to maintain a constant oxygen tension; this was achieved by using saturation concentrations of oxygen. It was decided to use the height of the small peak as full scale deflection for the antibiotic assay as the increase in power was exponential up to this point and the peak occurred at a convenient time. This choice of assay point was empirical. The inoculum was 1.1 ± 0.06 x 10^8 cfu/ml for all the microclalorimetric incubations. […]

Assay [8] deals with E. coli. Kind of assay: MIC / MBC against E. coli. The assay is classed as cell-based.
Assay [9] concerns respiring E.coli. Kind of assay: Microcalorimetry of respiring E. coli in glucose buffer. The assay is classed as cell-based. The conditions noted are these: for response on addition to respiring E.coli: highest concentration added 300µg/ml. As for the experimental part:
E.coli was suspended in 10% DMSO prior to freezing and the viable counts were for batch 1: pre-freeze: 4.0 ± 0.6_ x 10^10 cfu/ml and post -freeze 2.0 ± 0.44 x 10^10 cfu/ml and for batch 2: pre-freeze: 3.45 ± 0.58 x 10^10 cfu/ml and post-freeze 2.93 ± 0.43 x 10^10 cfu/ml. The freezing rate for both batches was 20°C/min the survival rate was 50% for batch 1 and 85% for batch 2. These differences may have been due to batch 1 being kept for 24h at 4°C before being frozen.
The respiration experiments were carried out in glucose buffer at different pH. The respiration curves obtained from batch 1 (inoculum 2 x 10^10 cfu/ml) and batch 2 Inoculum 3.2 x 10^10 cfu/ml) were essentially similar and a mean was used as a reference). The respiration experiments were carried out at pH 7 for polymyxin and Znbacitracin and at pH 8 for neomycin. No differences in p-t control curves could be observed at pH 7 or pH 8.
The p-t curves rose and reached a plateau as has been observed for respiration of yeasts and some 20 min later fell to a lower plateau value. Prior incubation of the cells in the buffered glucose for periods up to 20 min before presentation to the calorimeter could reduce or entirely remove this effect.

Assay [10] has as its system M. flavus. Kind of assay: Electron microscopy of M. flavus treated with Znbacitracin. The conditions noted are these: even at 0.05 µg/ml (0.25 x MIC). The assay is classed as cell-based, Micrococcus flavus. The source says:
No differences could be observed between fresh and frozen cells treated with antibiotic, which is as expected since no observable damage had occurred to the bacterial cells during freezing/thawing.

Assay [11] relates to E. coli. The assay is described as follows: Electron microscopy of E. coli treated with ZNB. Format: cell-based. To be noted: response not lethal for the bacterium; listed as ZNB.
[12] abbreviates: 0.02 ug/ml added at 50 % of p-t curve.
Where [13] appears, read: 0.6-1 ug/ml added at 0 % of p-t curve.

These results are taken from EP1785722A1, “Microbial, viral and mammalian susceptibility to agents that affect cell growth and metabolism, and compatibility of compounds” (Stratos Bio Ltd., priority 2005, dated 2007).

Entries after “also recorded” stand apart in the source; their conditions may differ. Bounds are passed on as bounds.

With `CN[C@H](CC(C)C)C(=O)N[C@H]1C(=O)N[C@@H](CC(N)=O)C(=O)N[C@H]2C(=O)N[C@H]3C(=O)N[C@H](C(=O)N[C@H](C(=O)O)c4cc(O)cc(O)c4-c4cc3ccc4O)[C@H](O)c3ccc(c(Cl)c3)Oc3cc2cc(c3O[C@@H]2O[C@H](CO)[C@@H](O)[C@H](O)[C@H]2O[C@H]2C[C@](C)(N)[C@H](O)[C@H](C)O2)Oc2ccc(cc2Cl)[C@H]1O` [vancomycin], in assay [1], the “effect on the eye” value is given as “without any effect to the eye”.

In the case of Polymyxin B sulphate, the MIC (in general, the smallest concentration in the dilution series that meets the test's criterion for growth inhibition) was 20 µg/mL in assay [2]; 2 µg/mL in assay [4] (as printed in table heads); “Ug/ml MIC & MBC 2 ug/ml” in assay [6] (as printed in table heads); 2 µg/mL in [6] (listed as POL); 2 µg/mL in assay [6] (text); 6.3 µg/mL in assay [8] (as printed in table head). In assay [8] (text), this compound came in with an MIC of 6.3 µg/mL. In assay [3] (20ug/ml POLB), the “time until growth was inhibited completely” value is “Within 9 hours growth was inhibited completely”. In addition, the “Observed effect on p-t curves” value in assay [5] (single antibiotic at its MIC (4 ug/ml Neo; 2ug/ml POLB)) is reported as “Slightly delayed peak”; in assay [7] (0.07 ug/ml added at 18 % of p-t curve), “No effect on growth curve”; in assay [7] (0.35 -2 ug/ml added at 18 % of p-t curve, CV 2.5%), “Linear log dose response 10 min after addition of antibiotic CV 2.5%”. Besides, the MBC – broadly, the smallest concentration meeting the test's criterion for killing – in assay [6] (as printed in table head) was “Ug/ml MIC & MBC 2 ug/ml”; in assay [6] (text) it was 2 µg/mL; in [8] (as printed in table head), 6.3 µg/mL; in assay [8] (text) it was 6.3 µg/mL. Moreover, in assay [7], the “concentration above which the declines were identical” value is reported as over 3.5 x MIC. In addition, the “time to observable response after addition” value in assay [7] is reported as at most 5 min. The “response of p-t curve” value in assay [7] (0.033 x MIC (0.07 µg/ml)) was “no response to the antibiotic was observed”. In addition, the Comments entry in assay [7] (0.35 -2 ug/ml added at 18 % of p-t curve) is on record as “All curves return to baseline confirmed bacteriocidal action”; in [9] (POLB 6.3 ug/ml), “Bacteriocidal action demonstrated”. Moreover, the “time to sharp decline in heat output after addition” value in [7] (0.5 x MIC) is given as at most 10 min. Also, the mode of action result in [7] (at MIC values) is listed as “bactericidal”. For the same compound, the “sensitivity of the assay” value in assay [9] came out at 3 µg/mL. For the same compound, in assay [9] (Fig. 15), the “effect on p-t curve” value is “reduced the initial peak height and thereafter the p-t curve returned to baseline”. Also, in assay [9] (POLB 6.3 ug/ml, pH 7), the “time to return to baseline (after reduced height of p-t curve initially)” value is “Reduced height of p-t curve initially and returned to baseline within 1 hour”.

Znbacitracin: the MIC in assay [2] was 20 µg/mL; in [4] (listed as ZNB), 0.2 µg/mL; in assay [6] (as printed in table heads) it was 100 µg/mL; in [8] (as printed in table head), over 1000 µg/mL; in assay [8] (text), over 1000 µg/mL. The “Observed effect on p-t curves” value in assay [3] (ZNB 20 ug/ml) was “No effect on p-t curve”; in assay [5] (setting [12]) it was “Standard growth curve”; in assay [5] (0.1-1 ug/ml added at 50 % of p-t curve, CV 1.8%), “Linear log dose response curve 2 hours after addition of antibiotic CV 1.8%”; in assay [5] (0.2-0.3 ug/ml added at 0 % of p-t curve, CV 2.3%, n=10), 1.4 standard curve CV =2.3% , n=10; in [5] (setting [13]), “Total inhibition of growth”; in [5] (1-4 ug/ml added at 50 % of p-t curve, cv 1.4% n=10), “Linear log dose response curve 20 min after addition of antibiotic cv = 1.4% n= 10”. Further, the “Observed effect on p-t curves” value in assay [7] (single antibiotic at its MIC (0.25ug/ml Neo; 100ug/ml ZNB), added at 50 % of p-t curve) was “Slightly delayed peak”; in assay [9] (ZNB 300 ug/ml - 1000 ug/ml, pH 7), “No response”. In addition, the MBC result in [4] (as printed in table head) is “Ug/ml MIC & MBC 0.2 ug/ml”; in [8] (as printed in table head), over 1000 µg/mL. Besides, in assay [5], the “concentrations at which no further response could be recorded” value is on record as “higher than 4 µg/ml”. Besides, in [5], the “concentrations at which no variation in p-t curves could be observed” value was “lower than 0.02 µg/ml”. For the same compound, the Comments result in [5] (setting [12]) is “No inhibition observed”; in [5] (0.2-0.3 ug/ml added at 0 % of p-t curve) it was “Initial growth promoting effect - delayed peak after 9 hours”; in assay [5] (setting [13]), “Bacteriocidal effect confirmed all bacteria are dead”; in [9] (ZNB 300 ug/ml - 1000 ug/ml), “Resistance demonstrated”. Besides, the “appearance of p-t curves” value was “a power plateau immediately after addition of the antibiotic for varying periods of time and then an increase in power followed by a further small peak” in assay [5] (0.02-0.8 µg/ml (0.1 x MIC-4 x MIC)); “held at a plateau for a varying amount of time and then decreased towards a baseline value” in assay [5] (5 x MIC - 20 x MIC). In addition, in [5] (0.1-1 ug/ml added at 50 % of p-t curve), the “Peak of growth curve later than standard curve” value is “Peak of growth curve occurs 60 min later than standard curve”. In addition, in assay [5] (added at 50 % of p-t curve), the “largest dose that could be distinguished” value was 4 ug/ml largest dose that could be distinguished any higher dose s gave identical dose response curves. Also, the “concentration with initial growth promoting effect” value in assay [5] (added at inoculum) was in the range of 0.2 to 0.3 µg/mL. Moreover, the “effect on growing cultures” value in [7] (ZNB added to growing cultures (Fig. 17)) was “a small plateau was reached before growth reoccurred”. The entries for the “response on addition to respiring E.coli” value in assay [9] and in assay [9] (listed as ZNB) were “No response could be observed” and “no effect on power output”, respectively. For the same compound, the “effect on the cell surface (electron micrographs)” value in [10] was “Protrusions on the cell wall can be observed”. Besides, in [11], the “effect on bacterial membrane (electron micrographs)” value is listed as “protrusions have been observed on the bacterial membrane; also recorded: did actually cause protrusions to occur on the bacterial membrane”.
